Assay results taken from patent US20220313698A1, “MODULATORS OF CYSTIC FIBROSIS TRANSMEMBRANE CONDUCTANCE REGULATOR” (Vertex Pharmaceuticals Incorporated, priority 2019, published 2022).

Biological target: CFTR-mediated chloride transport (Homo sapiens, UniProt P13569)
Test: Corrector Assay A - membrane potential dye assay (enteroid cells)
Conditions: for Corrector Assay A % activity: % of chloride transport of triple combination control (1 μM (14S)-dispiro macrocycle + 3 μM tezacaftor + 300 nM ivacaftor); for EC50: read-out: Corrector Assay A EC50, human intestinal enteroid cells, 18-24 h incubation, acute 10 μM forskolin + 300 nM ivacaftor

Structure (SMILES) | Corrector Assay A % activity | EC50
CC(C)(C)c1ccc2c(n1)N1C[C@@H](CCC(C3CCNCC3)Nc3cccc(n3)S(=O)(=O)NC2=O)CC1(C)C (single isomer, unassigned) [Compound 248] | ++ (++ is 30-60%) | > 3000 nM
COCCN1CCC2(CC1)CC(NC(=O)C1CC[C@@H]3CN(c4nc(C(C)(C)C)ccc4C(=O)NS(=O)(=O)c4cccc(n4)N1)C(C)(C)C3)C2 (single isomer, unassigned) [Compound 220] | +++ (+++ is >60%) | 1000 to 3000 nM
CC(C)(C)c1ccc2c(n1)N1CC(CCC(C(C)(C)O)Nc3cccc(n3)S(=O)(=O)NC2=O)CC1(C)C (stereo not shown) [Compound 13] | ++ (++ is 30-60%) | < 1000 nM
CC1(C)C[C@@H]2CC[C@@H](c3ccccn3)Nc3cccc(n3)S(=O)(=O)NC(=O)c3ccc(-c4c(Cl)cccc4Cl)nc3N1C2 [Compound 342] | ++ (++ is 30-60%) | < 1000 nM
CC(C)(C)c1ccc2c(n1)N1C[C@@H](CC[C@@H](c3cc(C4CCOCC4)ccn3)Nc3cccc(n3)S(=O)(=O)NC2=O)CC1(C)C (single isomer, unassigned) [Compound 121] | +++ (+++ is >60%) | < 1000 nM
CC1CCC2CN(c3nc(C(C)(C)C)ccc3C(=O)NS(=O)(=O)c3ccn1n3)C(C)(C)C2 (single isomer, unassigned) [Compound 273] | ++ (++ is 30-60%) | 1000 to 3000 nM
CC(C)C1CC[C@@H]2CN(c3nc(C(C)(C)C)ccc3C(=O)NS(=O)(=O)c3cccc(n3)N1)C(C)(C)C2 (single isomer, unassigned) [Compound 287] | +++ (+++ is >60%) | < 1000 nM
CC(C)n1cc(-c2ccc3c(n2)N2C[C@@H](CC[C@@H](c4ccccn4)Nc4cccc(n4)S(=O)(=O)NC3=O)CC2(C)C)cn1 [Compound 345] | ++ (++ is 30-60%) | < 1000 nM
CC(C)(C)c1ccc2c(n1)N1C[C@@H](CC[C@@H](c3cc(CCN)ccn3)Nc3cccc(n3)S(=O)(=O)NC2=O)CC1(C)C (single isomer, unassigned) [Compound 85] | ++ (++ is 30-60%) | < 1000 nM
CC(C)(C)c1ccc2c(n1)N1C[C@@H](CCC(c3ccc(CN)cn3)Nc3cccc(n3)S(=O)(=O)NC2=O)CC1(C)C (stereo partly shown) [Compound 196] | +++ (+++ is >60%) | < 1000 nM
CC(C)(C)c1ccc2c(n1)N1C[C@@H](CCC(c3cc(CN)ccn3)Nc3cccc(n3)S(=O)(=O)NC2=O)CC1(C)C (single isomer, unassigned) [Compound 116] | +++ (+++ is >60%) | < 1000 nM
CC(C)(C)c1ccc2c(n1)N1C[C@@H](CC[C@H](c3cccc(N4CCOCC4)n3)Nc3cccc(n3)S(=O)(=O)NC2=O)CC1(C)C [Compound 191] | +++ (+++ is >60%) | < 1000 nM
CC(C)(C)c1ccc2c(n1)N1C[C@@H](CCC(c3ccc(-c4cn[nH]c4)cn3)Nc3cccc(n3)S(=O)(=O)NC2=O)CC1(C)C (stereo partly shown) [Compound 135] | ++ (++ is 30-60%) | < 1000 nM
CC(C)(C)c1ccc2c(n1)N1C[C@@H](CC[C@H](c3cccc(-c4ccn[nH]4)n3)Nc3cccc(n3)S(=O)(=O)NC2=O)CC1(C)C [Compound 77] | ++ (++ is 30-60%) | < 1000 nM
CC1(C)C[C@@H]2CC[C@H](c3ccccn3)Nc3cccc(n3)S(=O)(=O)NC(=O)c3ccc(-c4cccc(OCC5CCC5)n4)nc3N1C2 [Compound 313, (14S,17R)-8-[6-(cyclobutylmethoxy)pyridin-2-yl]-12,12-dimethyl-17-(pyridin-2-yl)-2λ^6-thia-3,9,11,18,23-pentaazatetracyclo[17.3.1.111,14.05,10]tetracosa-1(22),5,7,9,19(23),20-hexaene-2,2,4-trione] | +++ (+++ is >60%) | < 1000 nM
CN1CCN(c2cccc([C@@H]3CC[C@@H]4CN(c5nc(C(C)(C)C)ccc5C(=O)NS(=O)(=O)c5cccc(n5)N3)C(C)(C)C4)n2)CC1 [Compound 194] | ++ (++ is 30-60%) | < 1000 nM

Results, then the compound that gave them:

Corrector Assay A % activity | EC50 | Structure (SMILES)
++ (++ is 30-60%) | < 1000 nM | CC(C)(C)c1ccc2c(n1)N1C[C@@H](CCC(c3ccccc3)n3ccc(n3)S(=O)(=O)NC2=O)CC1(C)C (single isomer, unassigned) [Compound 274]
+++ (+++ is >60%) | < 1000 nM | CC(C)(C)c1ccc2c(n1)N1C[C@@H](CC[C@@H](c3ncccc3Br)Nc3cccc(n3)S(=O)(=O)NC2=O)CC1(C)C (single isomer, unassigned) [Compound 53]
++ (++ is 30-60%) | < 1000 nM | Cc1ccc2nc3c(cc2c1)C(=O)NS(=O)(=O)c1cccc(n1)N[C@H](c1cc(C(C)(C)C)ccn1)CC[C@@H]1CN3C(C)(C)C1 (single isomer, unassigned) [Compound 6]
++ (++ is 30-60%) | < 1000 nM | COC(=O)C1CC[C@@H]2CN(c3nc(C(C)(C)C)ccc3C(=O)NS(=O)(=O)c3cccc(n3)N1)C(C)(C)C2 (single isomer, unassigned) [Compound 225]
+++ (+++ is >60%) | < 1000 nM | CC(C)(C)c1ccc2c(n1)N1C[C@@H](CCC(c3ccncc3)Nc3cccc(n3)S(=O)(=O)NC2=O)CC1(C)C (single isomer, unassigned) [Compound 232]
+++ (+++ is >60%) | < 1000 nM | CC(C)(C)c1ccnc([C@H]2CC[C@@H]3CN(c4nc(-c5cccc(OCCC6CC6)n5)ccc4C(=O)NS(=O)(=O)c4cccc(n4)N2)C(C)(C)C3)c1 [Compound 301, (14S,17R)-17-(4-tert-butylpyridin-2-yl)-8-[6-(2-cyclopropylethoxy)pyridin-2-yl]-12,12-dimethyl-2λ^6-thia-3,9,11,18,23-pentaazatetracyclo[17.3.1.111,14.05,10]tetracosa-1(22),5,7,9,19(23),20-hexaene-2,2,4-trione]
++ (++ is 30-60%) | < 1000 nM | COC(=O)CCc1ccc(C2CC[C@@H]3CN(c4nc(C(C)(C)C)ccc4C(=O)NS(=O)(=O)c4cccc(n4)N2)C(C)(C)C3)nc1 (stereo partly shown) [Compound 90]
+++ (+++ is >60%) | < 1000 nM | CC1(C)C[C@@H]2CC[C@H](c3ccccn3)Nc3cccc(n3)S(=O)(=O)NC(=O)c3ccc(C4CCC(F)(F)CC4)nc3N1C2 [Compound 324, (14S,17R)-8-(4,4-Difluorocyclohexyl)-12,12-dimethyl-17-(pyridin-2-yl)-2λ^6-thia-3,9,11,18,23-pentaazatetracyclo[17.3.1.111,14.05,10]tetracosa-1(22),5,7,9,19(23),20-hexaene-2,2,4-trione]
+++ (+++ is >60%) | < 1000 nM | CC1(C)C[C@@H]2CCC(c3ccccn3)Nc3cccc(n3)S(=O)(=O)NC(=O)c3ccc(-n4ccc(OCCC5C6(CC6)C56CC6)n4)nc3N1C2 (stereo partly drawn) [Compound 355, (14S)-8-[3-(2-{dispiro[2.0.2.1]heptan-7-yl}ethoxy)-1H-pyrazol-1-yl]-12,12-dimethyl-17-(pyridin-2-yl)-2λ^6-thia-3,9,11,18,23-pentaazatetracyclo[17.3.1.111,14.05,10]tetracosa-1(22),5,7,9,19(23),20-hexaene-2,2,4-trione]
+++ (+++ is >60%) | < 1000 nM | CC(C)(C)NC(=O)CCCC1CC[C@@H]2CN(c3nc(C(C)(C)C)ccc3C(=O)NS(=O)(=O)c3cccc(n3)N1)C(C)(C)C2 (stereo partly drawn) [Compound 16, N-tert-butyl-4-[(14S)-8-tert-butyl-12,12-dimethyl-2,2,4-trioxo-2λ^6-thia-3,9,11,18,23-pentaazatetracyclo[17.3.1.111,14.05,10]tetracosa-1(23),5(10),6,8,19,21-hexaen-17-yl]butanamide]
++ (++ is 30-60%) | < 1000 nM | CC1(C)C[C@@H]2CC[C@@H](c3ccccn3)Nc3cccc(n3)S(=O)(=O)NC(=O)c3ccc(Cc4ccccc4)nc3N1C2 [Compound 160]
+ (+ is <30%) | < 1000 nM | CC(C)(C)c1ccc2c(n1)N1C[C@@H](CC[C@@H](c3ccc(C(F)(F)F)cn3)Nc3cccc(n3)S(=O)(=O)NC2=O)CC1(C)C (single isomer, unassigned) [Compound 81]
+++ (+++ is >60%) | < 1000 nM | CC(C)(C)c1ccc2c(n1)N1C[C@@H](CCC(c3cc(C(C)(C)O)ccn3)Nc3cccc(n3)S(=O)(=O)NC2=O)CC1(C)C (single isomer, unassigned) [Compound 36]
++ (++ is 30-60%) | < 1000 nM | CC(C)CC#Cc1ccc2c(n1)N1C[C@@H](CC[C@@H](c3ccccn3)Nc3cccc(n3)S(=O)(=O)NC2=O)CC1(C)C [Compound 158]
+++ (+++ is >60%) | < 1000 nM | COc1cccc(-c2ccc3c(n2)N2C[C@@H](CC[C@@H](c4ccccn4)Nc4cccc(n4)S(=O)(=O)NC3=O)CC2(C)C)n1 [Compound 338]
++ (++ is 30-60%) | < 1000 nM | CN(C)CCNc1cccc([C@@H]2CC[C@@H]3CN(c4nc(C(C)(C)C)ccc4C(=O)NS(=O)(=O)c4cccc(n4)N2)C(C)(C)C3)n1 [Compound 188]
++ (++ is 30-60%) | < 1000 nM | CC(C)n1cc(-c2ccc3c(n2)N2C[C@@H](CC[C@H](c4ccccn4)Nc4cccc(n4)S(=O)(=O)NC3=O)CC2(C)C)cn1 [Compound 346]
+++ (+++ is >60%) | < 1000 nM | CC(C)(C)c1ccc2c(n1)N1C[C@@H](CC[C@@H](c3cc(CCN)ccn3)Nc3cccc(n3)S(=O)(=O)NC2=O)CC1(C)C (single isomer, unassigned) [Compound 84]
++ (++ is 30-60%) | < 1000 nM | CC1(C)CCCc2cc3c(nc21)N1C[C@@H](CCC(c2ccccn2)Nc2cccc(n2)S(=O)(=O)NC3=O)CC1(C)C (single isomer, unassigned) [Compound 264]
